This is an account of results in ChEMBL document CHEMBL1833829, “Development of 2-substituted-N-(naphth-1-ylmethyl) and N-benzhydrylpyrimidin-4-amines as dual cholinesterase and Aβ-aggregation inhibitors: Synthesis and biological evaluation” (Bioorg Med Chem Lett, 2011).

Assay [1] concerns the target T1, Cholinesterase (Equus caballus, UniProt P81908).
Description: (§1) Inhibition of equine BuChE by Ellman's method
Assay [2] addresses T1, Cholinesterase. The source holds these as a separate data set.
Description: as §1
For the next assay, the target named is Acetylcholinesterase (Homo sapiens, UniProt P22303).

Bounds are passed on as bounds.

Chain of Acetylcholinesterase (P22303 whole entry): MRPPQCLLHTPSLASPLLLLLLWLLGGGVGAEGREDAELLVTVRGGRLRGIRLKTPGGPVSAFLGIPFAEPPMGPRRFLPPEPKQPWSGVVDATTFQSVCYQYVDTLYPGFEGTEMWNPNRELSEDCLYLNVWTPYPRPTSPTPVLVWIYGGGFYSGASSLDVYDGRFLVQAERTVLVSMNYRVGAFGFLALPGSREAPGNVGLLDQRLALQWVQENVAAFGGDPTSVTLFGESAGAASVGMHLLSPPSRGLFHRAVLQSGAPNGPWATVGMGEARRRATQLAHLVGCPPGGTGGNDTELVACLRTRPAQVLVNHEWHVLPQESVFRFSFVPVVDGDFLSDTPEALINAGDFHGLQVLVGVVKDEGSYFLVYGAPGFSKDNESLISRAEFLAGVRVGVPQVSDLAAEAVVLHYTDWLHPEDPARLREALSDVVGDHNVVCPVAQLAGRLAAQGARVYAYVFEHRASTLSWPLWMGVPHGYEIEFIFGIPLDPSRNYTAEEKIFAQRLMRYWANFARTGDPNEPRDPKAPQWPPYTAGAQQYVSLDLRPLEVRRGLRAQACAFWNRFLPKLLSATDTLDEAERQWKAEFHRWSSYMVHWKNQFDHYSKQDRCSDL
T1 sequence (P81908 whole entry): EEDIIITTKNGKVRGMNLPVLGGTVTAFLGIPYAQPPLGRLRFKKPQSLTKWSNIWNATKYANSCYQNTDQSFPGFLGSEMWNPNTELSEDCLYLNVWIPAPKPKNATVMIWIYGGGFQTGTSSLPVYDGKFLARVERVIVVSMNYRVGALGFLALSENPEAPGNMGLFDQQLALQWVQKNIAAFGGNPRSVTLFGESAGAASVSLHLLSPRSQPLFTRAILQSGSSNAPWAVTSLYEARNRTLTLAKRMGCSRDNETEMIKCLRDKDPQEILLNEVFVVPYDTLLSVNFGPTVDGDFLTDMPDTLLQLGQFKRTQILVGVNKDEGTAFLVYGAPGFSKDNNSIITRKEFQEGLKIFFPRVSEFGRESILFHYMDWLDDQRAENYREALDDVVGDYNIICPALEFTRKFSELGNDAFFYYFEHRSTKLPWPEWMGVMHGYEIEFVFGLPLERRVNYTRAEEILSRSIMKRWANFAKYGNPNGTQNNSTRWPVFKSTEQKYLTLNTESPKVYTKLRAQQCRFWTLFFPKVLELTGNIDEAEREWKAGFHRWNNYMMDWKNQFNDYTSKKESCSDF
Description for Acetylcholinesterase: Inhibition of human AChE by Ellman's assay

`CC1CCN(c2nccc(NCc3cccc4ccccc34)n2)CC1` showed an IC50 at Cholinesterase [1] of 2.2 µM. `CC(C)N1CCN(c2nccc(NCc3cccc4ccccc34)n2)CC1`: the IC50 against Cholinesterase [2] worked out at 7.6 µM; at Acetylcholinesterase, 15.8 µM. In the same order, the values of `CC(C)C1CCN(c2nccc(NCc3cccc4ccccc34)n2)CC1` are 9.1 µM and 16.7 µM.

Regarding `CCCN1CCN(c2nccc(NCc3cccc4ccccc34)n2)CC1`, the values for the 50% inhibitory concentration (IC50) against Cholinesterase [2] and against Acetylcholinesterase were 18.1 µM and 19 µM, respectively. With `c1ccc2c(CNc3ccnc(N4CCN(C5CCCCC5)CC4)n3)cccc2c1`, the figures for the IC50 against Cholinesterase [2] and on Acetylcholinesterase were 3.9 µM and 8 µM, respectively. The corresponding values for `CC(=O)N1CCN(c2nccc(NCc3cccc4ccccc34)n2)CC1` are 32.9 µM and 13.8 µM.

On to `CC(C)(C)OC(=O)N1CCN(c2nccc(NCc3cccc4ccccc34)n2)CC1`, for which the figures for the IC50 against Cholinesterase [2] and against Acetylcholinesterase were more than 100 µM and 50.8 µM, respectively. As to `c1ccc2c(CNc3ccnc(N4CCNCC4)n3)cccc2c1`, the results for the IC50 at Cholinesterase [2] and against Acetylcholinesterase were 25.4 µM and 17.5 µM, respectively. The corresponding values for `OCCN1CCN(c2nccc(NCc3cccc4ccccc34)n2)CC1` are 17.9 µM and 9.8 µM. For `COCCN1CCN(c2nccc(NCc3cccc4ccccc34)n2)CC1`, the figures for the IC50 against Cholinesterase [2] and at Acetylcholinesterase were 26.5 µM and 11.7 µM, respectively. The corresponding values for `CN1CCN(c2nccc(NC(c3ccccc3)c3ccccc3)n2)CC1` are 23.8 µM and 13.7 µM. For the compound `CC1CCN(c2nccc(NC(c3ccccc3)c3ccccc3)n2)CC1`, the IC50 against Cholinesterase [2] is 33.8 µM; against Acetylcholinesterase it was 32.2 µM. In the same order, the values of `CC(C)N1CCN(c2nccc(NC(c3ccccc3)c3ccccc3)n2)CC1` are 9.7 µM and 20.3 µM.

Turning to `CC(C)C1CCN(c2nccc(NC(c3ccccc3)c3ccccc3)n2)CC1`, the figures for the IC50 against Cholinesterase [2] and against Acetylcholinesterase were 87 µM and 42.5 µM, respectively. In the same order, the values of `CCCN1CCN(c2nccc(NC(c3ccccc3)c3ccccc3)n2)CC1` are 17.5 µM and 14.6 µM.

For the compound `c1ccc(C(Nc2ccnc(N3CCN(C4CCCCC4)CC3)n2)c2ccccc2)cc1`, the IC50 against Cholinesterase [2] amounted to 7.6 µM; against Acetylcholinesterase, 10 µM. Consider `CC(=O)N1CCN(c2nccc(NC(c3ccccc3)c3ccccc3)n2)CC1`, for which the IC50 on Cholinesterase [2] was more than 100 µM; against Acetylcholinesterase, 29 µM. In the case of `CC(C)(C)OC(=O)N1CCN(c2nccc(NC(c3ccccc3)c3ccccc3)n2)CC1`, the IC50 at Cholinesterase [2] and at Acetylcholinesterase was more than 100 µM throughout. Take `c1ccc(C(Nc2ccnc(N3CCNCC3)n2)c2ccccc2)cc1`: the IC50 was more than 100 µM against Cholinesterase [2] and 31.3 µM at Acetylcholinesterase.

For `OCCN1CCN(c2nccc(NC(c3ccccc3)c3ccccc3)n2)CC1`, the IC50 turned out to be 59.5 µM against Cholinesterase [2] and 21.6 µM at Acetylcholinesterase. In the same order, the values of `COCCN1CCN(c2nccc(NC(c3ccccc3)c3ccccc3)n2)CC1` are 28.4 µM and 39.2 µM.

The term IC50 denotes the concentration needed to halve the response being measured.
